Results published in patent publication US20260166016A1, “GPR139 RECEPTOR AGONIST, PREPARATION METHOD THEREFOR, AND APPLICATION THEREOF” (NEUBO APPTECH CO., LTD., priority 2022, published 2026).

What was measured:
[1] = test system: LPS induced mouse depression model; experiment: LPS induced mouse depression model, corticosterone level; assay type: in vivo; details: gavage 2.5 mg/mL at 0.1 mL/10 g twice daily Day 1-4, blood collected Day 5, FIG. 8
Source text: Mice: Male Crl: CD1 (ICR) mice; 10-14 weeks old; Weight: 35-40 g; Quantity: 40 pieces
Group 1, placebo+saline group: 10 mice; divided into 2 cages, 5 mice per cage.
Group 2, placebo+lipopolysaccharide (LPS) group: 10 mice; divided into 2 cages, 5 mice per cage.
Group 3, compound NRB181+saline group: 10 mice; divided into 2 cages, 5 mice per cage.
Group 4, compound NRB181+lipopolysaccharide (LPS) group: 10 mice; divided into 2 cages, 5 mice per cage.
21.3.1 Preparation of placebo before experiment: 0.5% CMC sodium+1% Tween80+saline. In a clean bench, 4 tubes of 40 mL placebo were prepared using pyrogen-free centrifuge tubes and ultrapure water, totaling 160 mL, ensuring the absence of endotoxins (LPS). Sterile and endotoxin free centrifuge tubes were used to divide […] of placebo into 4 mL/tube, for a total of 30 tubes, and stored at 4° C. for future use.
LPS with a purity of >98% was required 3.2 mg of LPS was accurately weighed and dissolved in 40 mL of placebo to prepare a sterile solution of 0.08 mg/mL. After thorough mixing, the solution was divided into sterile and endotoxin-free centrifuge tubes, 4 mL per tube. The LPS solution needed for the next day was stored at 4° C. (3 tubes), while the rest was frozen at −20° C. for future use. […]

[2] = target: T1, GPR139 (Homo sapiens, UniProt Q6DWJ6); experiment: GPR139 FLIPR cell calcium signal detection in GPR139-transfected HEK293 cells; assay type: cell-based; details: HEK293 cells transfected with GPR139, read-out: EC50 values of compounds for GPR139
T1 construct: expressed in transfected cells; host or cells: HEK293
T1 sequence (Q6DWJ6 1-353): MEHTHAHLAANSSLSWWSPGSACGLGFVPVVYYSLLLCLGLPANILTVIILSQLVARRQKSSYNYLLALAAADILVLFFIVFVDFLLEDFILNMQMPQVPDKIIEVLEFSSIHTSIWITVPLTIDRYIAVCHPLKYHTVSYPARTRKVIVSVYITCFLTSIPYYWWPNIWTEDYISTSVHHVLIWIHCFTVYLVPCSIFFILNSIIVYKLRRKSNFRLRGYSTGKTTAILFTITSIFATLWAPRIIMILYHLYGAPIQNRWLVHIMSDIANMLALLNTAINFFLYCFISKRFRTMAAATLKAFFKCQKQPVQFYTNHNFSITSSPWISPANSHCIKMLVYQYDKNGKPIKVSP
Experimental: HEK293 cells were grown in a 10 cm culture dish containing DMEM complete medium (containing glutamine, sodium pyruvate, penicillin/streptomycin, 10% fetal bovine serum) and incubated at 37° C. in a 5% CO2 incubator until 90% confluency. Then subculture twice a week at a ratio of 1:5. During cell passaging, the culture medium was first completely removed, washed once with 4 mL of DPBS, and then 3 mL of trypsin digestion solution was added and mixed well. When cell dissociation was observed, the trypsin solution was aspirated and 5 mL of complete DMEM medium was added. The cells were dispersed by pipetting, and 1 mL of cell suspension was added to each of five new 10 cm culture dishes. Then, 7 mL of complete DMEM medium was supplemented to each dish. After mixing, the cells were cultured at 37° C. in a 5% CO2 incubator.
On the transfection day, cells were digested and seeded into one 10 cm culture dish at appropriate density. 6 mL of DMEM/F12 medium (containing glutamine, sodium pyruvate, HEPES, and fetal bovine serum) was added, and the cells were cultured for 5 hours at 37° C. in 5% CO2. A 50 mL sterile centrifuge tube (Tube A) was taken, and 1 mL of serum-free DMEM/F12 medium (containing glutamine, sodium pyruvate, and HEPES) was added, followed by 10 μg of GPR139 DNA. The mixture was mixed well. Another 50 mL sterile centrifuge tube (Tube B) was taken, and 1 mL of serum-free DMEM medium (containing glutamine, sodium pyruvate, and HEPES) was added, followed by 60 μL of Fugene HD transfection reagent. The mixture was mixed well. 1 mL of Fugene HD transfection reagent from Tube B was transferred to Tube A, mixed well, and incubated at room temperature for 20 minutes. 2 mL of DMEM/F12 medium (containing glutamine, sodium pyruvate, HEPES, and fetal bovine serum) was added to Tube A. After mixing, 4 mL of mixture from Tube A was transferred to the prepared 10 cm dish (total volume 10 mL). The cells were cultured for 20-24 hours at 37° C. in 5% CO2.
The next day, the transfected cells were digested with trypsin digestion solution, and appropriate DMEM/F12 medium (containing glutamine, sodium pyruvate, HEPES, penicillin/streptomycin, fetal bovine serum) was added. The cells were seeded into Matrigel coated 384-well plates with a cell density of 6.67×10^6 cells/mL, 30 μL/well. The 384-well plates were cultured at 37° C. in 5% CO2.
On the third day, 10 μL/well of FLIPR dye (diluted in HEPES solution containing Pluronic and Probenecid) was added to the 384-well cell plate. And the plate was incubated for 40 minutes at 37° C. in 5% CO2. Diluted compounds were added to the cell plate and calcium signals were measured using a FLIPR plate reader.
Data were analyzed using XL-fit software to obtain EC50 values for each compound.

With `C[C@H](NC(=O)CNC(=O)c1cc(Cl)ccn1)c1c(F)cccc1F` [NRB181] the “expression level of corticosterone” value [1] was “significantly reduce the expression level of corticosterone” and the EC50 [2] was 0.1 to 100 nM.
